Here are results for 11 molecules from patent publication US20240158367A1, “TRICYCLIC COMPOUND AS HIF2-ALPHA INHIBITOR, PREPARATION METHOD THEREFOR AND APPLICATION THEREOF” (SHANGHAI JEMINCARE PHARMACEUTICALS CO., LTD, priority 2021, published 2024).

As usually defined, the EC50 is the concentration that produces a half-maximal response. A lower EC50 goes with an effect from little substance. A word on the AUC(0-inf): it is the area under the concentration-time curve extrapolated to infinity. Read a high AUC(0-inf) as more exposure. As usually defined, the Cmax is the maximum level reached in the sampled fluid or tissue.

Series [1] concerns VEGF expression in 786-O cells. Briefly: VEGF ELISA assay in 786-O cells. It is filed as cell-based. The conditions noted are these: about 48 hours incubation. How it is done:
100×DMSO stock solution dissolved with the drug was prepared in assay medium (RPMI-1640 containing 2% FBS; FBS: 10099141C, Gibco; RPMI-1640: 12440053, Gibco) to formulate a series of dilutions of 10×compounds. To a clear flat-bottom 96-well plate (3599, Corning) was added 20 μL of the 10×compound dilution. Then approximately 40,000 786-O cells (ATCC®CRL-1932™) in 180 μL of culture medium were seeded into the 96-well plate. The final concentration of DMSO (D2650, Sigma) in each well was 0.1%. After incubating in the incubator for about 48 hours, 100 μL of the upper medium from each well was pipetted and placed in a new 96-well plate (3799, Corning). An ELISA kit (DY293B, R&D Systems) was used. The concentration of VEGF was determined according to the OD value of each well at […] detected by a microplate reader. EC50 values were calculated by GraphPad Prism software using the dose-response-inhibition (four parameter) equation.

Series [2] has as its system HIF response element(HRE)-dependent luciferase in 786-O-HRE-Luc cells. Briefly: Luciferase assay in 786-O-HRE-Luc cells. It counts as cell-based. To be noted: approximately 24 hours incubation. The protocol: 786-O-HRE-Luc cells were obtained by infecting 786-O (ATCC®CRL-1932™) cells purchased from ATCC with commercial lentivirus. Appropriate 786-O-HRE-Luc single cell clones were screened, expanded, and used for the subsequent luciferase assay. For the luciferase assay, 100×DMSO stock solution dissolved with the drug was prepared in assay medium (RPMI-1640 containing 2% FBS; FBS: 10099141C, Gibco; RPMI-1640: 12440053, Gibco) to formulate a series of dilutions of 10×compounds. To a clear flat-bottom 96-well plate (3599, Corning) was added 20 μL of the 10×compound dilution. Then approximately 100,000 786-O-HRE-Luc cells in 180 μL of culture medium were seeded into the 96-well plate. The final concentration of DMSO (D2650, Sigma) in each well was 0.1%. After approximately 24 hours of incubation in the incubator, luciferase activity was determined using the Dual-Luciferase Reporter Assay System (E1960, Promega) reagent following the manufacturer's recommended method. EC50 values were calculated by GraphPad Prism software using the dose-response-inhibition (four parameter) equation.

The nature of series [3]: Pharmacokinetic test in SD rats by gavage.
Experimental: animals: SD rats, male, 200 to 220 g, purchased from Shanghai Jiesijie Laboratory Animal Co., Ltd.
The SD rats in each test compound group (3 rats in each group) were fasted overnight and then intragastrically administered the compounds (PO, administration dosage of 10 mg/kg or 5 mg/kg, administration volume of 10 mL/kg), and given food 4 hours after administration.
Approximately 0.2 mL of blood was collected from the jugular vein before administration and 0.083 hours, 0.25 hours, 0.5 hours, 1 hour, 2 hours, 4 hours, 6 hours, 8 hours, and 24 hours after administration, anticoagulated with sodium heparin. Blood samples were placed on ice after collection, and plasma was separated by centrifugation (centrifugation conditions: 1500 g, 10 minutes). The collected plasma was stored at −40° C. to −20° C. before analysis.
LC-MS/MS was used to determine the content of the test compound in rat plasma after intragastric administration.
[4] abbreviates: SD rats, male, PO 10 mg/kg, plasma.
[5] abbreviates: male, SD, rat, in vivo, po, 5 mg/kg.

The structures appear in SMILES notation.

`N=S1(=O)c2ccc(Oc3cc(F)cc(Cl)c3)c3c2C(O)(CC3F)C1(F)F` (centres unmarked) [Compound 1] had an EC50 in series [1] of 115 nM.
In series [2], `N#Cc1cc(F)cc(Oc2ccc3c4c2C(F)CC4(O)C(F)(F)S3(=N)=O)c1` (centres unmarked) [Compound 2] registered an EC50 of 46 nM.
With `N#Cc1cncc(Oc2ccc3c4c2[C@@H](F)[C@H](F)[C@]4(O)C(F)(F)S3(=O)=O)c1` [Compound 3-P1], the concentration for a half-maximal effect (EC50) in series [2] came to 67.7 nM; in series [1], 180 nM.
With `N#Cc1cncc(Oc2ccc3c4c2[C@H](F)[C@@H](F)[C@@]4(O)C(F)(F)S3(=O)=O)c1` [Compound 3-P2], the EC50 in series [2] was found to be 3990 nM; in series [1], 2760 nM.
In turn, `N#Cc1cncc(Oc2ccc3c4c2[C@@H](F)[C@@H](F)[C@]4(O)C(F)(F)S3(=O)=O)c1` [Compound 3-P3] displayed a concentration giving a half-maximal response (EC50) in series [2] of 12.2 nM. Also, the 50% effective concentration (EC50) in series [1] came to 30.9 nM. The “Plasma concentration and area under the curve compared with comparative example PT2385” value in series [3] (SD rats, PO, 10 mg/kg vs PT2385 5 mg/kg) is “significantly improved plasma concentration and area under the curve”. Further, in series [3] (setting [4]), the “Area under the curve AUC0-∞” value was 24806 ng·h/mL and the “Plasma concentration Cmax” value worked out at 4646 ng/mL.
Turning to `N#Cc1cncc(Oc2ccc3c4c2[C@H](F)[C@H](F)[C@@]4(O)C(F)(F)S3(=O)=O)c1` [Compound 3-P4], the EC50 in series [2] stood at 6410 nM; in series [1] it was 4920 nM.
For `N#Cc1cc(F)cc(Oc2ccc3c4c2[C@@H](F)[C@H](F)[C@]4(O)C(F)(F)S3(=O)=O)c1` [Compound 4-P1], in that order: 19.2 nM and 40.5 nM.
Take `N#Cc1cc(F)cc(Oc2ccc3c4c2[C@H](F)[C@@H](F)[C@@]4(O)C(F)(F)S3(=O)=O)c1` [Compound 4-P2]: the EC50 in series [2] amounted to 48.5 nM; in series [1], 54.4 nM.
In the case of `N#Cc1cc(F)cc(Oc2ccc3c4c2[C@@H](F)[C@@H](F)[C@]4(O)C(F)(F)S3(=O)=O)c1` [Compound 4-P3], the EC50 was 6.1 nM in series [2] and 15.2 nM in series [1].
For `N#Cc1cc(F)cc(Oc2ccc3c4c2[C@H](F)[C@H](F)[C@@]4(O)C(F)(F)S3(=O)=O)c1` [Compound 4-P4], in that order: 511 nM and 737 nM.
Take `CS(=O)(=O)c1ccc(Oc2cc(F)cc(C#N)c2)c2c1[C@H](O)C(F)(F)C2` [PT2385, reference compound]: in series [3] (setting [5]), the AUC(0-inf) amounted to 843 ng·h/mL and the highest concentration (Cmax) was 193 ng/mL.
